For 36 molecules, pMIC results are on record in ChEMBL document CHEMBL1148365, “Rational design of new antituberculosis agents: receptor-independent four-dimensional quantitative structure-activity relationship analysis of a set of isoniazid derivatives” (2004).

The test concerns Mycobacterium tuberculosis. Put plainly: Minimum inhibitory concentration against Mycobacterium tuberculosis var. bovis strain at 310K, with value expressed as pMIC i.e. -log of MIC (ug/mL). In kind it is functional.

Consider `NNC(=O)c1ccccc1[N+](=O)[O-]`, for which the pMIC is listed as 0.52.

Regarding `NNC(=O)c1ccncn1`, the pMIC was found to be 1.7.

As for `NNC(=O)c1ccc([N+](=O)[O-])cc1`, the pMIC is 1.92.

`NNC(=O)c1c[nH]cn1` showed a pMIC of 2.7.

`NNC(=O)/C=C/c1ccccc1` returned a pMIC of 3.4.

`NNC(=O)C1CCNCC1` gave a pMIC of 0.22.

On to `NNC(=O)c1ccnc2ccccc12`, for which the pMIC is listed as 1.1.

`NNC(=O)c1ccc(O)cc1` yielded a pMIC of 1.92.

`NNC(=O)c1ccc(Br)cc1` gave a pMIC of 1.92.

For `NNC(=O)c1cccc([N+](=O)[O-])c1`, the pMIC came to 3.22.

On to `Cc1ncc(C(=O)NN)c(O)n1`, for which the pMIC was determined as 0.4.

With `CN(C)C(=O)N1CCC(C(=O)NN)CC1`, the pMIC turned out to be 0.22.

`COc1cc(C(=O)NN)ccc1O`: the pMIC was determined as 1.52.

As for `NNC(=O)c1cccc(N)c1`, the pMIC is 2.52.

In turn, `NNC(=O)c1ccncc1N` came in with a pMIC of 2.82.

In turn, `NNC(=O)c1ccc(Cl)cc1` yielded a pMIC of 2.52.

Regarding `NNC(=O)c1ccccc1N`, the pMIC is given as 1.52.

`NNC(=O)Cc1ccncc1`: the pMIC worked out at 1.

For the molecule `NNC(=O)c1ccccn1`, the pMIC was determined as 3.82.

In the case of `NNC(=O)c1cncs1`, the pMIC is given as 2.

`NNC(=O)c1ccnc(F)c1` had a pMIC of 3.4.

Molecule `NNC(=O)c1c[nH]c(S)n1` registered a pMIC of 0.6.

The molecule `Cc1cnccc1C(=O)NN` displayed a pMIC of 0.7.

`NNC(=O)C(O)c1ccccc1` (stereo unspecified) showed a pMIC of 1.4.

Consider `NNC(=O)Cc1ccccc1`, for which the pMIC is given as 1.92.

Take `NNC(=O)Cc1ccc(Cl)cc1`: the pMIC is listed as 2.

As to `NNC(=O)C1Cc2ccccc2O1` (stereo unspecified), the pMIC is 0.65.

Turning to `Cn1cncc1C(=O)NN`, the pMIC came to 0.52.

The molecule `NNC(=O)c1ccco1` gave a pMIC of 4.22.

As for `NNC(=O)c1ccnc(Br)c1`, the pMIC was 1.82.

With `NNC(=O)c1cscn1`, the pMIC was 1.82.

`CN1CCC(C(=O)NN)CC1` came in with a pMIC of 0.22.

`NNC(=O)c1ccccc1` [BENZOIC ACID HYDRAZIDE] had a pMIC of 3.22.

With `NNC(=O)c1ccncc1` [ISONIAZID], the pMIC was found to be 4.2.

`NNC(=O)c1cccnc1` [NICOTINIC ACID HYDRAZIDE] came in with a pMIC of 2.7.

Turning to `NNC(=O)c1cnccn1` [PYRAZINE CARBOXYLIC ACID HYDRAZIDE], the pMIC came out at 2.82.
